Test results taken from patent publication US20120165403A1, “METHODS OF INHIBITING THE ACTIVITY OF HSP90 AND/OR ARYL HYDROCARBON RECEPTOR” (UNIVERSITY OF ROCHESTER, priority 2004, published 2012).

Legend:
hsp90 = assay: Affinity chromatography on EGCG-conjugated Sepharose, hsp90 inherent to RRL; assay type: binding, rabbit; conditions: immunoblotting
Description: EGCG was conjugated to cyanogen bromide (CNBr)-activated Sepharose (Sigma). EGCG (2.5 mg) was dissolved in 5004 coupling buffer (0.1M NaHCO3, 0.5M NaCl, pH 6.0). CNBr-activated Sepharose was swelled and washed in 1 mM HCl on a sintered glass filter followed by a wash with coupling buffer. CNBr-activated Sepharose beads were added to the EGCG in coupling buffer at a final concentration of 5 mg EGCG/ml of wet gel. The coupling solution containing EGCG and Sepharose was mixed end-over end at 4° C. overnight. Remaining active groups were blocked for 2 h at room temperature in Tris-HCl (0.1M, pH 8). EGCG-conjugated Sepharose was washed with three cycles of alternating pH wash buffers (Buffer 1: 0.1M acetate, 0.5M NaCl, pH4.0; Buffer 2: 0.1M Tris-HCl, 0.5M NaCl, pH 8.0). […]
Approximately 25 μL of 1:4 diluted RRL containing ^35S-labeled in vitro transcribed protein was incubated with 40 μL of either unconjugated or EGCG-conjugated Sepharose beads in binding buffer (50% slurry). […] Protein was transferred to PVDF membrane (Millipore, Bedford, Mass.). ^35S-labeled AhR, ARNT, p23, XAP2, and hsp90 truncated and point mutants were detected by Phosphoimaging. Hsp90 inherent to RRL was detected by immunoblotting using an anti-hsp90 monoclonal antibody (Stressgen Victoria, BC Canada) followed by secondary antibody coupled to horseradish peroxidase (Jackson Immuno Research, West Grove, Pa.). […]

ARNT = target: T1, ARNT (Mus musculus, UniProt P53762); assay: Affinity chromatography on EGCG-conjugated Sepharose, in vitro translated ARNT; assay type: binding, murine; conditions: 35S-ARNT in vitro translated in RRL
T1 construct: made in house; host or cells: coupled transcription/translation in rabbit reticulocyte lysate (TNT, Promega), 35S-labelled
T1 sequence (P53762 whole entry): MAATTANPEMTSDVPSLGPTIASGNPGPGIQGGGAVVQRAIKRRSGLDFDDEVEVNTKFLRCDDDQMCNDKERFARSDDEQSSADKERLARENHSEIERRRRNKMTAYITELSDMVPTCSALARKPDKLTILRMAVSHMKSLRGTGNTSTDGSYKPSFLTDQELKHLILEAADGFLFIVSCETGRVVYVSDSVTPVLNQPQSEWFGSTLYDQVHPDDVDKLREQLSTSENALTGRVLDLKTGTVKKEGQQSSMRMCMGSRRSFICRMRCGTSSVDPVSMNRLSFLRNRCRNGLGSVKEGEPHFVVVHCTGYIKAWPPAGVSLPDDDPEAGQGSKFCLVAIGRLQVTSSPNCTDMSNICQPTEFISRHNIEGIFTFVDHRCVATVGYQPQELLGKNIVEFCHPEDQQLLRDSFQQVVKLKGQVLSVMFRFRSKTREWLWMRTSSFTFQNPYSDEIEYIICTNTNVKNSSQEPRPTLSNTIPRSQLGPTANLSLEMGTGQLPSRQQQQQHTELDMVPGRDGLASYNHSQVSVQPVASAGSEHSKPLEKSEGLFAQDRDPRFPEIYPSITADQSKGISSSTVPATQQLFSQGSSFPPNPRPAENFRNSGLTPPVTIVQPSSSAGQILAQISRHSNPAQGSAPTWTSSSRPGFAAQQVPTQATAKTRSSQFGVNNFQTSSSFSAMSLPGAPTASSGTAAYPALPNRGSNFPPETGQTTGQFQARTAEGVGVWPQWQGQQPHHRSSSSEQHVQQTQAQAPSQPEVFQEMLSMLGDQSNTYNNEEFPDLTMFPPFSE
Source text: (§1) Murine AhR and ARNT cDNA (obtained from J. Whitlock and O. Hankinson, respectively) were inserted into pcDNA3 (Invitrogen, Carlsbad, Calif.). Chicken hsp90 constructs (FIG. 5), c90711hsp (wild-type), c90G94D (wild-type point mutant gly94→Asp (Grenert et al., J. Biol. Chem. 272:23843-23850 (1997), which is hereby incorporated by reference in its entirety), c90D92A (wild-type point mutant Asp92→Ala (Sullivan et al., J. Biol. Chem. 268:20373-20379 (1993), which is hereby incorporated by reference in its entirety), c90N221 (wild-type truncation mutant encoding a.a. 221-728 (Sullivan et al., J. Biol. Chem. 268:20373-20379 (1993), which is hereby incorporated by reference in its entirety)), c90N303 (a.a. 303-728) and c90N538 (a.a. 538-728) were kind gifts from Dr. D. Toft (Rochester, Minn.). The C-terminal truncation mutant c900507 (a.a. 1-221) was obtained from Dr. L. Neckers (Rockville, Md.) (Grenert et al., J. Biol. Chem. 272:23843-23850 (1997); Marcu et al., J. Biol. Chem. 275:37181-37186 (2000), which are hereby incorporated by reference in their entirety). Human p23 cDNA was excised from pQE80-p23 (obtained from W. Chan Stockton, Calif.) by sequential digests using the restriction enzymes Sad (3′-end) and BamHI (5′-end) and inserted into the similarly digested pET28a (Novagen, Madison, Wis.). […]

chicken hsp90 = chicken hsp90 (Gallus gallus, UniProt P11501); assay: Affinity chromatography on EGCG-conjugated Sepharose, hsp90 point and truncation mutants; assay type: binding; parameters: made in house; host or cells: coupled transcription/translation in rabbit reticulocyte lysate (TNT, Promega), 35S-labelled; conditions: smallest truncation mutant N538, amino acids 538-728
Chain of chicken hsp90 (P11501 538-728): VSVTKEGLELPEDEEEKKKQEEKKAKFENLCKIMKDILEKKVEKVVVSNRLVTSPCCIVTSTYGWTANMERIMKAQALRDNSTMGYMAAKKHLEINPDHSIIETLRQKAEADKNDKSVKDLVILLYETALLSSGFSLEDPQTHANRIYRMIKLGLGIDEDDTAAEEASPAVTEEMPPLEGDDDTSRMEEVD
Source text: as §1

O=C(O[C@@H]1Cc2c(O)cc(O)cc2O[C@@H]1c1cc(O)c(O)c(O)c1)c1cc(O)c(O)c(O)c1 [EGCG, epigallocatechin gallate]
binding of hsp90 to EGCG-Sepharose (hsp90): eluted from EGCG-Sepharose | binding of ARNT to immobilized EGCG (ARNT): incapable of binding immobilized EGCG | location of the binding site on hsp90 (chicken hsp90): binding of EGCG occurs within this region of the protein
